Laboratory results from US20240415791A1, “Therapeutic methods and compositions for treating cancer using devimistat and a fatty acid oxidation inhibitor, a tyrosine kinase inhibitor, a glutaminase inhibitor, and/or a glycolysis inhibitor” (Cornerstone Pharmaceuticals, Inc., priority 2021, published 2024).
Entries after “also recorded” stand apart in the source; their conditions may differ.

Experiments:
Format in all cases: cell-based, human
AsPC1 cells [1] = experiment: Acute ATP synthesis rescue by exogenous carbon sources in AsPC1 cells treated with devimistat and GPi; details: AsPC1, 50 μM GPi, 60 μM devimistat, 50 μM oleic acid
AsPC1 cells [2] = experiment: Devimistat-induced cell death (ATP after recovery) in AsPC1 cells; details: AsPC1, nutrient-free CBS2, treatment followed by recovery in serum-free RPMI
Experimental: Cells were plated at 80% confluency in complete RPMI in black, clear bottom 96-well plates or 35-mm dishes for ATP, protein and glycogen analysis, or glass coverslips for fluorescence visualization. […] Prior to drug treatment, cells were incubated in a nutrient-free carbonate buffered salt solution (CBS2) for 3 hours. Drug treatments were then carried out in CBS2 with addition of nutrient sources and/or chemical agents as described in the Examples and Figures.
(§1) LOGIC: High throughput, plate reader assays for cell death essentially always ultimately depend on metabolic activity of cells to identify viability, directly or indirectly. Thus, strong inhibition of metabolic activity by anti-metabolism agents like those described herein can confound cell death analysis by such assays. […] The inventors thus used a recovery-based assay wherein cells are treated with anti-metabolic agents under conditions where mitochondrial metabolism is (or becomes) limiting on viability. After experimental treatment, drug and media are removed and cells are allowed to recover in serum-free RPMI. RPMI provides high levels of glucose in support of glycolytic ATP generation (independently of mitochondrial function), allowing viable cells to recover ATP levels that are ultimately measured in the plate assay to score cell viability.
Survival is assessed by conventional luminescence measurement of ATP levels after this recovery.
TECHNICAL DETAILS: Immediately after drug treatments, acute ATP levels of cells in black, clear bottom 96-well plates were measured using the CellTiter-Glo® Luminescent Cell Viability Assay (catalog #G775B) following Promega (Madison, WI) protocols. […] After this recovery period ATP levels were measured using the CellTiter-Glo® Luminescent Cell Viability Assay as described above.
Survival is assessed by conventional luminescence measurement of ATP levels after this recovery. See the Methods section above for a detailed description of this assay and its validation.

PANC1 cells = experiment: Devimistat-induced cell death (ATP after recovery) in PANC1 cells; details: PANC1, nutrient-free CBS2, treatment followed by recovery in serum-free RPMI
Experimental: Cells were plated at 80% confluency in complete RPMI in black, clear bottom 96-well plates or 35-mm dishes for ATP, protein and glycogen analysis, or glass coverslips for fluorescence visualization. To create low nutritional conditions, cells were seeded in complete media, after 24 hours cells were transferred to serum free RPMI for 18-24 hours. Prior to drug treatment, cells were incubated in a nutrient-free carbonate buffered salt solution (CBS2) for 3 hours. Drug treatments were then carried out in CBS2 with addition of nutrient sources and/or chemical agents as described in the Examples and Figures.
as §1, with “cell viability. Under these conditions, cells that are committed to execution of cell death by the experimental treatment score as dead and cells that have not committed to cell death recover ATP levels and score as viable.” for “cell viability.”
Specifically, after exposure to the treatments indicated, cells are allowed to recover ([…]) in RPMI without serum. Survival is assessed by conventional luminescence measurement of ATP levels after this recovery.
TECHNICAL DETAILS: Immediately after drug treatments, acute ATP levels of cells in black, clear bottom 96-well plates were measured using the CellTiter-Glo® Luminescent Cell Viability Assay (catalog #G775B) following Promega (Madison, WI) protocols. To assess cell viability, after drug treatments, drug/agent-containing medium was replaced with serum-free RPMI and cells were incubated for an additional 17-24 hours to allow recovery of viable cells, without additional cell division. After this recovery period ATP levels were measured using the CellTiter-Glo® Luminescent Cell Viability Assay as described above.
A. Exogenous glucose protects from devimistat-induced cell death. Four different cell lines were exposed for 15 hours (PANC1, AsPC1, H460) or 8 hours (PC3) to the indicated range of devimistat doses in the absence of exogenous nutrients (in carbonate buffered balanced salts solution, CBS2) after 3 hours of preincubation in CBS2 (for cell adaptation and to equilibrate soluble nutrient pools). Cells were exposed to the treatments indicated, followed by recovery (24 hours) in RPMI without serum (providing nutrient support for viable cell recovery, without serum factors for cell division). Survival is assessed by conventional luminescence measurement of ATP levels after this recovery. […] The relatively large quantitative differences in devimistat sensitivity between cell lines under exogenous nutrient deprivation are characteristic of each line (see examples below), with small experiment-to-experiment variation. […]

AsPC1 cells [3] = experiment: Glycogen content in AsPC1 cells; details: AsPC1, CBS2, 3 hours
Experimental: Glycogen was quantified using the Glycogen Assay Kit II (colorimetric) from AbCam (ab169558) according to manufacturer's instructions. Briefly, approximately 2×10^6 cells were washed with ice-cold PBS and collected via scraping in 300 μL ice-cold ddH2O. Cells were immediately sonicated on ice for 5× […] pulses with a probe sonicator (Misonix Inc, model XL2000), then heated to 80° C. for 10 min. Samples were stored O/N at −20° C., then thawed, centrifuged at 12,000×g for 10 min and the supernatants collected for glycogen hydrolysis and quantification according to manufacturer's instructions.
C. […] Cells were treated in CBS2 for 3 hours with 30 μM devimistat or mock treated (FIG. 2C, left), or treated for 3 hours with the indicated devimistat doses (FIG. 2C, right).
D. Effects of anti-metabolism agents on glycogen consumption in PANC1 and AsPC1 cells. […] Glycogen content was measured in cell lysates (see Methods, above) and the results are presented in the left and middle graphs in FIG. 3D (note the different vertical scales for PANC1 and AsPC1 plots).

[4] = tested on: H460, PC3 and SW620 cells; experiment: Devimistat cell killing with thioridazine in other cell lines; details: 10 μM devimistat, 21 hours treatment, 22 hours recovery
AsPC1 cells [5] = experiment: CO2 release from 14C-oleic acid in AsPC1 cells; details: AsPC1, CBS2, 50 μM GPi, 40 μM oleic acid

Which “inhibition of oleic acid (OA)-driven acute ATP synthesis / OA rescue” value (AsPC1 cells [1]) does the source give for `CSc1ccc2c(c1)N(CCC1CCCCN1C)c1ccccc1S2` (stereo not drawn) [TZ, 2-methylmercapto-10-[2-(N-methyl-2-piperidyl)ethyl] phenothiazine] here?
The value was “strongly inhibited”.

What about the “sensitization to devimistat-induced cell death, agent combined with devimistat” value (AsPC1 cells [2]) of the same compound?
Its value is “Synergy observed; also recorded: enhances devimistat effects”.

What about the “sensitization to devimistat-induced cell death, agent combined with devimistat” value (PANC1 cells) of the same compound?
Its value is “Synergy observed”.

And the glycogen consumption (AsPC1 cells [3])?
Its glycogen consumption is “accelerates glycogen consumption”.

And the “enhancement of devimistat cell killing” value [4]?
The value was “enhances devimistat cell killing”.

What about the “oleic acid beta-oxidation (CO2 release from oleate)” value (AsPC1 cells [5]) of the same compound?
The value was “block oleic acid beta-oxidation”.
